Data: patent US20240360107A1, “AN EIF4A INHIBITOR WITH A NOVEL MECHANISM OF ACTION” (ARIZONA BOARD OF REGENTS ON BEHALF OF THE UNIVERSITY OF …, priority 2021, published 2024)
“Also recorded” adds a separate entry of the source.

These compounds were tested against eIF4A (Homo sapiens, UniProt P60842) (assay: RNA-stimulated malachite green ATPase assay). Conditions: comparison within the series.
Format: biochemical
Parameters: 6xHis with TEV protease site (N, cleaved yes); made in house; host or cells: E. coli BL21-CodonPlus
Description: Human eIF4A protein was produced recombinantly and a greater than 100,000-compound screen for inhibitors was completed using a malachite green ATPase assay (FIG. 11A). […] A stable mixture of yeast RNAs was added in an effort to improve this system and create a more biologically relevant eIF4A assay. eIF4A ATPase activity was accelerated without a statistically significant increase in the background signal in the presence of this RNA (FIG. 11B), and the new conditions gave excellent statistical parameters in a 384-well plate format (FIG. 11C).
ATPase assay. Recombinant WT or mutant eIF4A was added to a clear bottom 384 well plate (Greiner) in ATPase buffer (20 mM Tris pH 7.4, 80 mM KCl, 2.5 mM MgCl2, 1 mM DTT, 1% glycerol). Compounds were added and the plate was incubated at 37° C. for 20 min. ATP/RNA solution was added to afford a 20 μL per well reaction volume with 750 nM eIF4A, 250 μM ATP, and 0.25 mg/mL Yeast RNA (Sigma) for the initial screen and dose responses, and varying concentrations of ATP and RNA for the kinetic assays. The plate was incubated for 4 h at 37° C. for the initial screen and dose responses, and at seven time points (1 hour-7 hours) for kinetic assays. 0.04% v/v (final concentration) Tween-20 was added to a Malachite Green solution, and the Malachite Green (40 μL per well) was added. The solution was incubated for 5 minutes at room temperature and Absorbance at 660 nm was read on a SpectraMax iD5 plate reader (Molecular Devices).

Chain of eIF4A (P60842 whole entry): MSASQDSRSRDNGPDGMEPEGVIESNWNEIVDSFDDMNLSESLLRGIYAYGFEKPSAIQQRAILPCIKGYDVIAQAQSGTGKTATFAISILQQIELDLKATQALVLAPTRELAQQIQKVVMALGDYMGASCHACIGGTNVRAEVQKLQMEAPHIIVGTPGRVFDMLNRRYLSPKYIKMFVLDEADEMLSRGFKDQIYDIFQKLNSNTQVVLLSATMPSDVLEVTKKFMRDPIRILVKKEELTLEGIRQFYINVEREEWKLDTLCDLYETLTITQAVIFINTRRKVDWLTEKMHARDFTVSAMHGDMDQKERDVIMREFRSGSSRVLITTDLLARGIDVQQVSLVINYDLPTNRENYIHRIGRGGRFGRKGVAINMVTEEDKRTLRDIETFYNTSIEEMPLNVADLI

Row | potency in the eIF4A ATPase assay (in words) | Structure (SMILES)
1 | much less potent than compound 1 | CCCCc1ccc(-c2ccc(-c3cc(C(=O)O)c4ccccc4n3)o2)cc1 [Compound 3, 2-(5-(4-butylphenyl)furan-2-yl)quinoline-4-carboxylic acid]
2 | large drop in potency | CCCCc1ccc(-c2ccc(-c3cc(C(=O)O)c4c(Cl)cccc4n3)o2)cc1 [Compound 4, 2-(5-(4-butylphenyl)furan-2-yl)-5-chloroquinoline-4-carboxylic acid]
3 | moderate potency | CCCCc1ccc(-c2ccc(-c3cc(C(=O)O)c4ccc(F)cc4n3)o2)cc1 [Compound 8, 2-(5-(4-butylphenyl)furan-2-yl)-7-fluoroquinoline-4-carboxylic acid]
4 | moderate potency | CCCCc1ccc(-c2ccc(-c3cc(C(=O)O)c4ccc(Br)cc4n3)o2)cc1 [Compound 10, 7-bromo-2-(5-(4-butylphenyl)furan-2-yl)quinoline-4-carboxylic acid]
5 | less potent than bromine (12) | CCCCc1ccc(-c2ccc(-c3cc(C(=O)O)c4cccc(Cl)c4n3)o2)cc1 [Compound 11, 2-(5-(4-butylphenyl)furan-2-yl)-8-chloroquinoline-4-carboxylic acid]
6 | much more potent than 7-methoxy (22) | CCCCc1ccc(-c2ccc(-c3cc(C(=O)O)c4cc(OC)ccc4n3)o2)cc1 [Compound 21, 2-(5-(4-butylphenyl)furan-2-yl)-6-methoxyquinoline-4-carboxylic acid]
7 | much less potent than compound 21 | CCCCc1ccc(-c2ccc(-c3cc(C(=O)O)c4cc(OC(F)(F)F)ccc4n3)o2)cc1 [Compound 23, 2-(5-(4-butylphenyl)furan-2-yl)-6-(trifluoromethoxy)quinoline-4-carboxylic acid]
8 | large drop in potency | CCCCc1ccc(-c2ccc(-c3cc(C(=O)O)c4cc([N+](=O)[O-])ccc4n3)s2)cc1 [Compound 31, 2-(5-(4-butylphenyl)thiophen-2-yl)-6-nitroquinoline-4-carboxylic acid]
9 | large drop in potency | CCCCc1ccc(-c2ccc(-c3cc(C(=O)O)c4cc([N+](=O)[O-])ccc4n3)[nH]2)cc1 [Compound 32, 2-(5-(4-butylphenyl)-1H-pyrrol-2-yl)-6-nitroquinoline-4-carboxylic acid]
10 | drop in potency | CCCCc1ccc(-c2cccc(-c3cc(C(=O)O)c4cc([N+](=O)[O-])ccc4n3)c2)cc1 [Compound 33, 2-(4′-butyl-[1,1′-biphenyl]-3-yl)-6-nitroquinoline-4-carboxylic acid]
11 | drop in potency | CCCCc1ccc(-c2cccc(-c3cc(C(=O)O)c4cc([N+](=O)[O-])ccc4n3)n2)cc1 [Compound 34, 2-(6-(4-butylphenyl)pyridin-2-yl)-6-nitroquinoline-4-carboxylic acid]
12 | lost potency altogether | CCCCc1ccc(-c2cncc(-c3cc(C(=O)O)c4cc([N+](=O)[O-])ccc4n3)c2)cc1 [Compound 35, 2-(5-(4-butylphenyl)pyridin-3-yl)-6-nitroquinoline-4-carboxylic acid]
13 | much less potent than 28 | CCCCc1ccc(-c2ccc(-c3cc(C(=O)O)c4cc([N+](=O)[O-])ccc4n3)cc2)cc1 [Compound 36, 2-(4′-butyl-[1,1′-biphenyl]-4-yl)-6-nitroquinoline-4-carboxylic acid]
14 | much less potent than 28 | CCCCc1ccc(-c2ccc(-c3cc(C(=O)O)c4cc([N+](=O)[O-])ccc4n3)cn2)cc1 [Compound 37, 2-(6-(4-butylphenyl)pyridin-3-yl)-6-nitroquinoline-4-carboxylic acid]
15 | drastic loss in potency | O=C(O)c1cc(-c2ccc(-c3ccccc3)o2)nc2ccc([N+](=O)[O-])cc12 [Compound 38, 6-nitro-2-(5-phenylfuran-2-yl)quinoline-4-carboxylic acid]
16 | no more potent than 28 | CCCCCc1ccc(-c2ccc(-c3cc(C(=O)O)c4cc([N+](=O)[O-])ccc4n3)o2)cc1 [Compound 40, 6-nitro-2-(5-(4-pentylphenyl)furan-2-yl)quinoline-4-carboxylic acid]
17 | lost all potency | O=C(O)c1cc(-c2ccc(-c3ccc4c(c3)OCO4)o2)nc2ccc([N+](=O)[O-])cc12 [Compound 48, 2-(5-(benzo[d][1,3]dioxol-5-yl)furan-2-yl)-6-nitroquinoline-4-carboxylic acid]
18 | less potent than compound 28 | O=C(O)c1cc(-c2ccc(-c3cccc(-c4ccccc4)c3)o2)nc2ccc([N+](=O)[O-])cc12 [Compound 51, 2-(5-([1,1′-biphenyl]-3-yl)furan-2-yl)-6-nitroquinoline-4-carboxylic acid]

Row | Structure (SMILES) | potency in the eIF4A ATPase assay (in words)
19 | CCCCc1ccc(-c2ccc(-c3cc(C(=O)O)c4cc(Cl)ccc4n3)o2)cc1 [Compound 6, 2-(5-(4-butylphenyl)furan-2-yl)-6-chloroquinoline-4-carboxylic acid] | moderate losses of potency compared to the bromine substituent
20 | CCCCc1ccc(-c2ccc(-c3cc(C(=O)O)c4cc(I)ccc4n3)o2)cc1 [Compound 7, 2-(5-(4-butylphenyl)furan-2-yl)-6-iodoquinoline-4-carboxylic acid] | moderate losses of potency compared to the bromine substituent
21 | CCCCc1ccc(-c2ccc(-c3cc(C(=O)O)c4ccc(OC)cc4n3)o2)cc1 [Compound 22, 2-(5-(4-butylphenyl)furan-2-yl)-7-methoxyquinoline-4-carboxylic acid] | neither were more potent than earlier molecules in the series
22 | CCCCc1ccc(-c2ccc(-c3cc(C(=O)O)c4ccc(C(F)(F)F)cc4n3)o2)cc1 [Compound 26, 2-(5-(4-butylphenyl)furan-2-yl)-7-(trifluoromethyl)quinoline-4-carboxylic acid] | performed better in the ATPase assay than molecules with electron-donating substitutions
23 | CCCCc1ccc(-c2ccc(-c3cc(C(=O)O)c4cccc(C(F)(F)F)c4n3)o2)cc1 [Compound 27, 2-(5-(4-butylphenyl)furan-2-yl)-8-(trifluoromethyl)quinoline-4-carboxylic acid] | performed better in the ATPase assay than molecules with electron-donating substitutions; also recorded: about two-fold better than compound 26
24 | CCCCc1ccc(-c2ccc(-c3cc(C(=O)O)c4cccc([N+](=O)[O-])c4n3)o2)cc1 [Compound 30, 2-(5-(4-butylphenyl)furan-2-yl)-8-nitroquinoline-4-carboxylic acid] | over three-fold less potent than compound 28
25 | CC(C)(C)OC(=O)Nc1cccc(-c2ccc(-c3cc(C(=O)O)c4cc([N+](=O)[O-])ccc4n3)o2)c1 [Compound 44, 2-(5-(3-((tert-butoxycarbonyl)amino)phenyl)furan-2-yl)-6-nitroquinoline-4-carboxyli c acid] | low potency
26 | CC(C)(C)OC(=O)Nc1ccc(-c2ccc(-c3cc(C(=O)O)c4cc([N+](=O)[O-])ccc4n3)o2)cc1 [Compound 45, 2-(5-(4-((tert-butoxycarbonyl)amino)phenyl)furan-2-yl)-6-nitroquinoline-4-carboxylic acid] | low potency
27 | O=C(O)c1cc(-c2ccc(-c3cccc4ccccc34)o2)nc2ccc([N+](=O)[O-])cc12 [Compound 49, 2-(5-(naphthalen-1-yl)furan-2-yl)-6-nitroquinoline-4-carboxylic acid] | about four-fold less potent than compound 28
28 | O=C(O)c1cc(-c2ccc(-c3ccc(-c4ccccc4)cc3)o2)nc2ccc([N+](=O)[O-])cc12 [Compound 50, 2-(5-([1,1′-biphenyl]-4-yl)furan-2-yl)-6-nitroquinoline-4-carboxylic acid] | less potent than compound 28; also recorded: more potent than meta-substituted 51

Same assay, conditions: relative to compound 1

Row | fold less potent than compound 1 in the ATPase assay | Structure (SMILES)
29 | about 5 fold | CCCCc1ccc(-c2ccc(-c3cc(C(=O)OCC)c4cc(Br)ccc4n3)o2)cc1 [Compound 2, ethyl 6-bromo-2-(5-(4-butylphenyl)furan-2-yl)quinoline-4-carboxylate]

Same assay, conditions: relative to compound 28

Row | fold less potent than 28 in the ATPase assay | Structure (SMILES)
30 | about 5 fold | CCCc1ccc(-c2ccc(-c3cc(C(=O)O)c4cc([N+](=O)[O-])ccc4n3)o2)cc1 [Compound 39, 6-nitro-2-(5-(4-propylphenyl)furan-2-yl)quinoline-4-carboxylic acid]
